Measurements: PubChem BioAssay AID330 (DTP/NCI, 2004)
Where “and” joins values, the source holds several entries; their conditions need not be identical. Equal values may be shown once. Toxic doses and inconclusive results are not listed. Rule for the calls: active = survival T/C of 150% or more; inactive = T/C below 125% in these data.

System: P388 leukemia ip, CD2F1 mice, survival T/C
Test: NCI In Vivo Anticancer Drug Screen. Data for tumor model P388 Leukemia (intraperitoneal) in CD2F1 (CDF1) mice
Settings: endpoint: median survival time, higher = longer survival
Outline: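 Mice carrying the transplanted tumor received test compound or vehicle. Survival was recorded in each group, and the value is the treated-group measurement divided by that of the vehicle-treated control group.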

Measured: T/C

O=c1cc(N2CCOCC2)n2ccccc2n1
inactive: dose: 60.0 mg/kg/injection, schedule: Q01DX005 (ip), vehicle: saline 96 % of control | dose: 120.0 mg/kg/injection, schedule: Q01DX005 (ip), vehicle: saline 102 % of control | dose: 240.0 mg/kg/injection, schedule: Q01DX005 (ip), vehicle: saline 96 % of control

O=c1[nH]c2ccc(O)cc2o1
inactive: dose: 60.0 mg/kg/injection, schedule: Q01DX005 (ip), vehicle: saline with Tween-80 108 % of control | dose: 120.0 mg/kg/injection, schedule: Q01DX005 (ip), vehicle: saline with Tween-80 95 % of control | dose: 240.0 mg/kg/injection, schedule: Q01DX005 (ip), vehicle: saline with Tween-80 100 % of control

CC(C)=NN(C)/C=N/S(=O)(=O)c1ccccc1
inactive: dose: 50.0 mg/kg/injection, schedule: Q01DX005 (ip), vehicle: Klucel (hydroxypropylcellulose) (HPC) 100 % of control | dose: 100.0 mg/kg/injection, schedule: Q01DX005 (ip), vehicle: Klucel (hydroxypropylcellulose) (HPC) 97 % of control | dose: 200.0 mg/kg/injection, schedule: Q01DX005 (ip), vehicle: Klucel (hydroxypropylcellulose) (HPC) 98 % of control

C[C@@H]1C(=O)CC23COC(=O)C2=CCCC3[C@@]1(C)CCC1COC(=O)C1 (stereo partly drawn)
inactive: dose: 12.5 mg/kg/injection, schedule: Q01DX005 (ip), vehicle: distilled water + alcohol 100 % of control | dose: 25.0 mg/kg/injection, schedule: Q01DX005 (ip), vehicle: distilled water + alcohol 100 % of control | dose: 50.0 mg/kg/injection, schedule: Q01DX005 (ip), vehicle: distilled water + alcohol 106 % of control | dose: 60.0 mg/kg/injection, schedule: Q01DX005 (ip), vehicle: distilled water + alcohol 101 % of control | dose: 100.0 mg/kg/injection, schedule: Q01DX005 (ip), vehicle: distilled water + alcohol 107 % of control | dose: 120.0 mg/kg/injection, schedule: Q01DX005 (ip), vehicle: distilled water + alcohol 108 % of control | dose: 240.0 mg/kg/injection, schedule: Q01DX005 (ip), vehicle: distilled water + alcohol 110 % of control

Cc1ccc(S(=O)(=O)Nc2cc(C)c3c(c2C)CCN=C3)cc1
inactive: dose: 12.5 mg/kg/injection, schedule: Q01DX009 (ip), vehicle: distilled water + Tween-80 93 % of control | dose: 25.0 mg/kg/injection, schedule: Q01DX009 (ip), vehicle: distilled water + Tween-80 91 % of control | dose: 50.0 mg/kg/injection, schedule: Q01DX009 (ip), vehicle: distilled water + Tween-80 88 % of control | dose: 100.0 mg/kg/injection, schedule: Q01DX009 (ip), vehicle: distilled water + Tween-80 93 % of control | dose: 200.0 mg/kg/injection, schedule: Q01DX009 (ip), vehicle: distilled water + Tween-80 91 % of control

C[CH2][Sn]([CH2]C)([N]=C=S)[N]=C=S.c1ccc2nc(-c3ccc4ccccc4n3)ccc2c1
inactive: dose: 60.0 mg/kg/injection, schedule: Q01DX005 (ip), vehicle: Klucel (hydroxypropylcellulose) (HPC) 95 % of control | dose: 120.0 mg/kg/injection, schedule: Q01DX005 (ip), vehicle: Klucel (hydroxypropylcellulose) (HPC) 96 % of control | dose: 240.0 mg/kg/injection, schedule: Q01DX005 (ip), vehicle: Klucel (hydroxypropylcellulose) (HPC) 98 % of control

COc1ccc(N2C(=O)CCC2=O)cc1
inactive: dose: 100.0 mg/kg/injection, schedule: Q01DX001 (ip), vehicle: saline with Tween-80 109 % of control | dose: 200.0 mg/kg/injection, schedule: Q01DX001 (ip), vehicle: saline with Tween-80 100 % of control | dose: 400.0 mg/kg/injection, schedule: Q01DX001 (ip), vehicle: saline with Tween-80 95 % of control

CC(C)(C)OC(=O)NN(CC(=O)OCc1ccccc1)N=O
inactive: dose: 12.5 mg/kg/injection, schedule: Q01DX009 (ip), vehicle: other 104 % of control | dose: 25.0 mg/kg/injection, schedule: Q01DX009 (ip), vehicle: other 97 % of control | dose: 50.0 mg/kg/injection, schedule: Q01DX009 (ip), vehicle: other 97 % of control | dose: 100.0 mg/kg/injection, schedule: Q01DX009 (ip), vehicle: other 101 % of control | dose: 200.0 mg/kg/injection, schedule: Q01DX009 (ip), vehicle: other 97 % of control

O=C(Oc1ccc[nH]c1=O)C1CC1
inactive: dose: 12.5 mg/kg/injection, schedule: Q01DX009 (ip), vehicle: saline 99 % of control and 100 % of control | dose: 25.0 mg/kg/injection, schedule: Q01DX009 (ip), vehicle: saline 101 % of control and 102 % of control | dose: 50.0 mg/kg/injection, schedule: Q01DX009 (ip), vehicle: saline 98 % of control and 108 % of control | dose: 100.0 mg/kg/injection, schedule: Q01DX009 (ip), vehicle: saline 103 % of control and 106 % of control | dose: 200.0 mg/kg/injection, schedule: Q01DX009 (ip), vehicle: saline 107 % of control and 117 % of control | dose: 400.0 mg/kg/injection, schedule: Q01DX009 (ip), vehicle: saline 100 % of control
